These are literature values, as cited in patent US20120275998A1, “BIODEGRADABLE STENT COMPRISING AN ACID SCAVENGING AGENT” (priority 2009, published 2012).

`OCCN(CCO)c1nc(N2CCCCC2)c2nc(N(CCO)CCO)nc(N3CCCCC3)c2n1` [Dipyridamole, 2,6-bis(dithioethanolamino)-4,8-dipiperidinopyrimido(5,4-d)pyrimidine]: the “Soluble (solvents)” value (solvents in which the substance is soluble) is “Ethanol, dimethyl sulfoxide”. The Water solubility result (water) is given as “slightly soluble in water”.
